Active and inactive are the calls of the source. The rule behind the calls is not given here.
Tested on: CCRIS mutagenicity, Ames/micronucleus/aberration tests
Test: CCRIS mutagenicity studies
[1] = Test System: AMES SALMONELLA TYPHIMURIUM, Strain/Indicator: TA98, Metabolic Activation: NONE, Method: STANDARD PLATE
[2] = Test System: AMES SALMONELLA TYPHIMURIUM, Strain/Indicator: TA98, Metabolic Activation: RAT, LIVER, S-9, AROCLOR 1254, Method: STANDARD PLATE
[3] = Test System: AMES SALMONELLA TYPHIMURIUM, Strain/Indicator: TA100, Metabolic Activation: NONE, Method: STANDARD PLATE
[4] = Test System: AMES SALMONELLA TYPHIMURIUM, Strain/Indicator: TA100, Metabolic Activation: RAT, LIVER, S-9, AROCLOR 1254, Method: STANDARD PLATE

SMILES	mutagenic call (Test System: AMES SALMONELLA TYPHIMURIUM, Strain/Indicator: TA1535, Metabolic Activation: NONE)	mutagenic call (Test System: E. COLI, Strain/Indicator: WP2 (HCR-), Metabolic Activation: NONE)	mutagenic call (Test System: AMES SALMONELLA TYPHIMURIUM, Strain/Indicator: TA98, Metabolic Activation: HAMSTER, LIVER, S-9, AROCLOR 1254, Method: STANDARD PLATE)	mutagenic call [1]	mutagenic call [2]	mutagenic call (Test System: AMES SALMONELLA TYPHIMURIUM, Strain/Indicator: TA100, Metabolic Activation: HAMSTER, LIVER, S-9, AROCLOR 1254, Method: STANDARD PLATE)	mutagenic call [3]	mutagenic call [4]	mutagenic call (Test System: AMES SALMONELLA TYPHIMURIUM, Strain/Indicator: TA1535, Metabolic Activation: HAMSTER, LIVER, S-9, AROCLOR 1254, Method: STANDARD PLATE)	mutagenic call (Test System: AMES SALMONELLA TYPHIMURIUM, Strain/Indicator: TA1535, Metabolic Activation: NONE, Method: STANDARD PLATE)	mutagenic call (Test System: AMES SALMONELLA TYPHIMURIUM, Strain/Indicator: TA1535, Metabolic Activation: RAT, LIVER, S-9, AROCLOR 1254, Method: STANDARD PLATE)	mutagenic call (Test System: AMES SALMONELLA TYPHIMURIUM, Strain/Indicator: TA1537, Metabolic Activation: HAMSTER, LIVER, S-9, AROCLOR 1254, Method: STANDARD PLATE)	mutagenic call (Test System: AMES SALMONELLA TYPHIMURIUM, Strain/Indicator: TA1537, Metabolic Activation: NONE, Method: STANDARD PLATE)	mutagenic call (Test System: AMES SALMONELLA TYPHIMURIUM, Strain/Indicator: TA1537, Metabolic Activation: RAT, LIVER, S-9, AROCLOR 1254, Method: STANDARD PLATE)	mutagenic call (Test System: AMES SALMONELLA TYPHIMURIUM, Strain/Indicator: TA1538, Metabolic Activation: HAMSTER, LIVER, S-9, AROCLOR 1254, Method: STANDARD PLATE)	mutagenic call (Test System: AMES SALMONELLA TYPHIMURIUM, Strain/Indicator: TA1538, Metabolic Activation: NONE, Method: STANDARD PLATE)	mutagenic call (Test System: AMES SALMONELLA TYPHIMURIUM, Strain/Indicator: TA1538, Metabolic Activation: RAT, LIVER, S-9, AROCLOR 1254, Method: STANDARD PLATE)	mutagenic call (Test System: MOUSE LYMPHOMA, Strain/Indicator: L5178Y (TK+/TK-), Metabolic Activation: NONE, Method: SUSPENSION/PLATE)	mutagenic call (Test System: MOUSE LYMPHOMA, Strain/Indicator: L5178Y (TK+/TK-), Metabolic Activation: RAT, LIVER, S-9, AROCLOR 1254, Method: SUSPENSION/PLATE)
CCCCN=NC(C)(C)OO	active; positive	active; positive	–	–	–	–	–	–	–	–	–	–	–	–	–	–	–	–	–
O=[N+]([O-])/C(Br)=C\c1ccccc1	–	–	inactive; negative	inactive; negative	inactive; negative	inactive; negative	inactive; negative	inactive; negative	inactive; negative	inactive; negative	inactive; negative	inactive; negative	inactive; negative	inactive; negative	inactive; negative	inactive; negative	inactive; negative	inactive; negative. reevaluation of results: negative	inactive; negative. reevaluation of results: negative
COC(=O)Nc1nc2ccc(/C(=N/O)c3ccc(F)cc3)cc2[nH]1	–	–	–	inactive; negative	active; positive	–	inactive; negative	inactive; negative	–	–	–	–	–	–	–	–	–	–	–

From PubChem BioAssay AID1259407 (Chemical Carcinogenesis Research Information System (CCRIS), 2018)
